Data: US12171744B2, “Pharmaceutical combinations for the treatment of cancer” (Presage Biosciences, Inc., priority 2016, dated 2024)

Tests used:
[1] = tested on: NUDHL/Dox1000 cells; experiment: CIVO microinjection, CC3 expression; set-up: species or system mice; conditions: mouse, in vivo
Procedure: (§1) Cell lines shown in Table 1, adherent or suspension, were treated in 6-well dishes or T10 flasks respectively, seeded at one million per ml density prior to treatment in total volumes of 3-10 ml. All agents used for in vitro cell treatments were formulated in water/DMSO to achieve required concentrations (as stated in respective figure labels/legends) with DMSO concentrations not exceeding 0.01%. Drug sources are indicated in table under ‘CIVO microinjection studies’. Cells were harvested at experimental time points: 2, 6, or 24 hours post treatment as indicated in respective figures, first by washing cells twice in ice-cold PBS in 15 ml falcon tubes, centrifugation at 1000 rpm for 5 mins followed by lysis of the respective cell pellets as described in section below. Note: Drug resistant NUDHL1 Dox 1000 nM and Toledo Dox 1000 nM cell lines were generated at Presage by culturing parental lines in media with stepwise increments in Doxorubicin concentration over several passages. These cells were used to generate xenografts when resistance to 1 uM Dox was achieved.
(§2) Mice were enrolled into CIVO drug studies when the tumor volume reached approximately 1000 mm^3. […]

[2] = tested on: Toledo/Dox1000 cells; experiment: CIVO microinjection, CC3 expression; set-up: species or system mice; conditions: mouse, in vivo
Procedure: as §1, §2

[3] = tested on: Ramos Burkitt's lymphoma cells; experiment: CIVO microinjection, cleaved caspase-3 staining; format: in vivo, mice; conditions: marker of apoptosis
Procedure: (§3) Mice were enrolled into CIVO drug studies when the tumor volume reached approximately 1000 mm^3. Microinjection studies were performed using the CIVO device as previously described (Klinghoffer et al, Science Translational Medicine 2015) The device was configured with 6 injection needles set for a 6 mm injection length and a total volume delivery of 3 μl. A fluorescent tracking marker (FTM) was added to each drug reservoir in vehicle for delivery along with each drug or drug combination. All micro-doses were equivalent to or lower than what would be allowed under FDA guidelines for Exploratory IND (Investigational New Drug) studies and by solubility of drug into vehicle. Total amounts of agents injected are tabulated below in Table 4.
FIGS. 5A-5D show Ramos Burkitt's lymphoma cells stained for cleaved caspase-3 (CC3) (shown in red) as a marker of apoptosis.

[4] = tested on: NudHL1 DLBCL xenografts; experiment: CIVO microinjection, CC3 staining after 6 hours; format: in vivo, mice; conditions: treated for 6 hours
Procedure: as §3, with “All micro-doses were equivalent to or lower than what would be allowed under FDA guidelines for Exploratory IND (Investigational New Drug) studies and by solubility of drug into vehicle.” left out
FIGS. 9A-9D depict cells that were treated as above and stained for cleaved caspase-3 (CC3) as a marker of apoptosis (shown in red).
FIGS. 10A-10D depict cells that were treated as above and stained for cleaved caspase-3 (CC3) as a marker of apoptosis (shown in red).

[5] = tested on: RIvA DLBCL model; experiment: Western blot of treated cells; format: cell-based; conditions: increasing concentration of voruciclib, single agent
Procedure: as §1, with “These cells were used to generate xenografts when resistance to 1 uM Dox was achieved.” left out
Protein lysates were prepared by adding ice-cold 1×RIPA Buffer (from 10×, Millipore) with 1×-3× Halt protease and phosphatase inhibitor cocktail (100×, Pierce) to cell pellets, followed by pulse sonication (˜3-5 secs) three times. […] Protein samples were quantified using Bradford assay (Biorad) at 1:10 or higher dilutions using appropriate blank controls with 1×RIPA. […]

[6] = tested on: NUDHL1 model of DLBCL; experiment: Xenograft tumor growth; format: in vivo, NOD SCID mice; conditions: Voruciclib 200 mpk, Venetoclax 50 mpk
Procedure: Immune deficient NOD SCID mice were implanted with the NUDHL1 model of DLBCL. The xenografted tumors were allowed to grow in the NOD SCID host until they reached 200 mm^3, at which point the xenografted animals were randomized into 4 study groups: 1. Vehicle control; 2. […] Venetoclax at 50 mpk; and 4. […] Venetoclax was dosed by oral gavage on days 1 and 4 of each weekly cycle. Drug effects were assessed via tumor volume measurements twice weekly by a technician blinded to the treatment of each subject in the study. N=5-6 animals per treatment arm.

[7] = tested on: SUDHL4 model of DLBCL; experiment: Xenograft tumor growth and Western blot of tumors; format: in vivo, NOD SCID mice
Procedure: Protein lysates were prepared by adding ice-cold 1×RIPA Buffer (from 10×, Millipore) with 1×-3× Halt protease and phosphatase inhibitor cocktail (100×, Pierce) to cell pellets, followed by pulse sonication (˜3-5 secs) three times. Lysates were cleared by centrifugation at 14K rpm for 15-20 mins and the supernatant (lysate) was collected for further analysis. To prepare lysates from cryopreserved xenograft tumor tissue, tissue was first homogenized using a hand-held tissue homogenizer (Cole Palmer) in above lysis buffer followed by pulse sonication and centrifugation as described above. Above steps were carried out under ice cold conditions. Protein samples were quantified using Bradford assay (Biorad) at 1:10 or higher dilutions using appropriate blank controls with 1×RIPA. […]
Immune deficient NOD SCID mice were implanted with the SUDHL4 model of DLBCL. […] Drug effects were assessed via tumor volume measurements twice weekly by a technician blinded to the treatment of each subject in the study. […]

[8] = target: CDK9 (Homo sapiens, UniProt P50750); experiment: Kinase inhibition profiling (filter binding assay with γ-33P-ATP)
Chain of CDK9 (P50750 whole entry): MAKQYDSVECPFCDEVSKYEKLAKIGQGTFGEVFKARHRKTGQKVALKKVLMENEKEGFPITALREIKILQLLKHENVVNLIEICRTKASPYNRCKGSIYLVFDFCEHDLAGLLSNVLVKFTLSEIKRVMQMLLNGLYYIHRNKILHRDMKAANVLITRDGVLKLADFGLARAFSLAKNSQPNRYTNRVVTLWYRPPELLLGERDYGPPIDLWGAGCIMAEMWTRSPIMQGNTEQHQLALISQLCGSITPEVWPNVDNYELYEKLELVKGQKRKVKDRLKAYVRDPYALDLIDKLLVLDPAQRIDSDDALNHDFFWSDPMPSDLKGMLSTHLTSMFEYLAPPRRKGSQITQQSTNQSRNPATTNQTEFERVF
Chain of CDK9 (O60563 whole entry partner): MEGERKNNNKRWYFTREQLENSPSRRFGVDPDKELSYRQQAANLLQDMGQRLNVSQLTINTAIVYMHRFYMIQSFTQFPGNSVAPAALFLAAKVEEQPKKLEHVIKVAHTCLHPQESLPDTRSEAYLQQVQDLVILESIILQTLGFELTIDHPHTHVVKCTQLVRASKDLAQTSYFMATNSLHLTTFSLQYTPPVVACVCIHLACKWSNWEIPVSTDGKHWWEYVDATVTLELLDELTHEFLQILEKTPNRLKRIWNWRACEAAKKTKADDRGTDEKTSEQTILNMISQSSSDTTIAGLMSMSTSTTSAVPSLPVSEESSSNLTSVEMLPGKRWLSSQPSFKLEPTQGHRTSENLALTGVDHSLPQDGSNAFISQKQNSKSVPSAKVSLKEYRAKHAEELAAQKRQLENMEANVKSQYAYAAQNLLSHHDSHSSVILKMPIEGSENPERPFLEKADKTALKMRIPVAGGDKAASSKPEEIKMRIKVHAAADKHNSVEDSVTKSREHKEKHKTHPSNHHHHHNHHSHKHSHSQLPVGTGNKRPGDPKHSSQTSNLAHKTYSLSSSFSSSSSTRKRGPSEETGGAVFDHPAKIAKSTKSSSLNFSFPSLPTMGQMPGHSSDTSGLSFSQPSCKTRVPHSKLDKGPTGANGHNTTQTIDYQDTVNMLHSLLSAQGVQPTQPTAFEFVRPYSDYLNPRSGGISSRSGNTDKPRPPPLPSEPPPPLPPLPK
Procedure: The testing facility was Reaction Biology Corp. Kinase activity was measured using a filter binding assay with radioactive γ-33P-ATP as phosphate donor. The ATP concentration was near the Km for respective kinase. For each kinase, an IC50 value were calculated from a 10-point concentration curve of the test article and converted to Ki values.

With `CN1CC[C@@H](c2c(O)cc(O)c3c(=O)cc(-c4ccc(C(F)(F)F)cc4Cl)oc23)[C@@H]1CO` (relative stereo) [voruciclib, (+)-trans-2-(2-Chloro-4-trifluoromethylphenyl)-5,7-dihydroxy-8-(2-hydroxymethyl-1-methylpyrrolidin-3-yl)-chromen-4-one] the CC3 expression [1] was “slight effect”, the CC3 expression [2] was “slight effect” and the “expression of CC3” value [3] was “slight increase”. The CC3 expression [4] was “little to no increase”, the MCL-1 [5] was “suppresses” and the “apoptosis (cPARP)” value [5] was “increases as the concentration of voruciclib increases”. The “tumor size (images)” value [6] was “smaller”, the normalized tumor volume ([7]; Voruciclib 200 mpk, Venetoclax 25 mpk, oral gavage 6 days of the week) was “increase in tumor volume” and the p53 ([7]; Western blot of tumors, Day 26, 4 hours post treatment) was “restores”. The “inhibition of CDK9” value [8] was “strongest inhibition”.
